In patent US8217029B2, “Oxazolidinone antibiotics” (Actelion Pharmaceuticals Ltd, priority 2007, dated 2012):
In brackets after ≈: the same amount, converted by molar mass.

Test system: S aureus A798
Assay: Minimal inhibitory concentration (MIC), microdilution method in cation-adjusted Mueller-Hinton Broth following NCCLS guidelines
Assay type: cell-based
Details: pH of test medium 7.2-7.3
How it was run: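 Broth microdilution per NCCLS M7-A4 in cation-adjusted Mueller-Hinton broth at pH 7.2-7.3; MIC reported in mg/l.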

| SMILES | MIC [µg/mL] | MIC S aureus A798 |
| --- | --- | --- |
| O=C1CSc2ccc(N3C[C@@H](CNC4CCN(c5ccnc6ccc(F)cc56)CC4)OC3=O)cc2N1 [Example 179, 6-((R)-5-{[1-(6-Fluoro-quinolin-4-yl)-piperidin-4-ylamino]-methyl}-2-oxo-oxazolidin-3-yl)-4H-benzo[1,4]thiazin-3-one] | ≤ 0.031 |  |
| COc1ccc2ncnc(N3CC(NC[C@@H]4CN(c5ccc6c(c5)NC(=O)CS6)C(=O)O4)C3)c2c1 [Example 55, 6-((R)-5-{[1-(6-Methoxy-quinazolin-4-yl)-azetidin-3-ylamino]-methyl}-2-oxo-oxazolidin-3-yl)-4H-benzo[1,4]thiazin-3-one] | ≤ 0.031 |  |
| COc1cnc2cccc(N3CC(CNC[C@@H]4CN(c5ccc6c(c5)NC(=O)CS6)C(=O)O4)C3)c2c1 [Example 163, 6-[(R)-5-({[1-(3-Methoxy-quinolin-5-yl)-azetidin-3-ylmethyl]-amino}-methyl)-2-oxo-oxazolidin-3-yl]-4H-benzo[1,4]thiazin-3-one] | ≤ 0.031 |  |
| CCCc1ccc(N2C[C@@H](CN3CCN(c4ccnc5ccc(OC)nc45)CC3)OC2=O)cc1 [Example 25, (R)-5-[4-(6-Methoxy-[1,5]naphthyridin-4-yl)-piperazin-1-ylmethyl]-3-(4-propyl-phenyl)-oxazolidin-2-one] | ≤ 0.031 |  |
| COc1ccc2nccc(N3CCN(CC4CN(c5ccc6ccc(=O)[nH]c6c5)C(=O)O4)CC3)c2n1 (racemic) [Example 111, (RS)-7-{5-[4-(6-Methoxy-[1,5]naphthyridin-4-yl)-piperazin-1-ylmethyl]-2-oxo-oxazolidin-3-yl}-1H-quinolin-2-one] | 0.125 (≈ 0.257 µM) |  |
| COc1cccc(N2C[C@@H](CN3CCN(c4ccnc5ccc(OC)nc45)CC3)OC2=O)c1 [Example 24, (R)-5-[4-(6-Methoxy-[1,5]naphthyridin-4-yl)-piperazin-1-ylmethyl]-3-(3-methoxy-phenyl)-oxazolidin-2-one] | 0.25 (≈ 0.556 µM) |  |
| COc1ccc2nccc(N3CC(N(C)C[C@@H]4CN(c5cc6c(nn5)OCCO6)C(=O)O4)C3)c2n1 [Example 153, (R)-3-(6,7-Dihydro-[1,4]dioxino[2,3-c]pyridazin-3-yl)-5-({[1-(6-methoxy-[1,5]naphthyridin-4-yl)-azetidin-3-yl]-methyl-amino}-methyl)-oxazolidin-2-one] | 4 (≈ 8.34 µM) |  |
| COc1ccc2nccc(N3CC(N(C)C[C@@H]4CN(c5ccc6ncsc6c5)C(=O)O4)C3)c2n1 [Example 144, (R)-3-Benzothiazol-6-yl-5-({[1-(6-methoxy-[1,5]naphthyridin-4-yl)-azetidin-3-yl]-methyl-amino}-methyl)-oxazolidin-2-one] | 0.063 (≈ 0.132 µM) |  |
| COc1ccc2nccc(N3CC(N(C)C[C@@H]4CN(c5ccc(C)c(C(F)(F)F)c5)C(=O)O4)C3)c2n1 [Example 135, (R)-5-({[1-(6-Methoxy-[1,5]naphthyridin-4-yl)-azetidin-3-yl]-methyl-amino}-methyl)-3-(4-methyl-3-trifluoromethyl-phenyl)-oxazolidin-2-one] | ≤ 0.031 |  |
| COc1ccc2nccc(N3CC4C(C3)C4NC[C@@H]3CN(c4ccc5c(c4)NC(=O)CS5)C(=O)O3)c2n1 (stereo partly drawn) [Example 89, 6-((R)-5-{[(1α,5α,6α)-3-(6-Methoxy-[1,5]naphthyridin-4-yl)-3-aza-bicyclo[3.1.0]hex-6-ylamino]-methyl}-2-oxo-oxazolidin-3-yl)-4H-benzo[1,4]thiazin-3-one] |  | <=0.031 mg/l |
| COc1ccc2nccc(N3CCN(C[C@@H]4CN(c5cccc(N(C)C)c5)C(=O)O4)CC3)c2n1 [Example 34, (R)-3-(3-Dimethylamino-phenyl)-5-[4-(6-methoxy-[1,5]naphthyridin-4-yl)-piperazin-1-ylmethyl]-oxazolidin-2-one] | 0.125 (≈ 0.27 µM) |  |
| COc1ccc2nccc(N3CC(NC[C@@H]4CN(c5ccc6c(c5)NC(=O)CO6)C(=O)O4)C3)c2c1 [Example 156, 6-((R)-5-{[1-(6-Methoxy-quinolin-4-yl)-azetidin-3-ylamino]-methyl}-2-oxo-oxazolidin-3-yl)-4H-benzo[1,4]oxazin-3-one] | ≤ 0.031 |  |
| COc1ccc2nccc(N3C[C@@H](NC[C@@H]4CN(c5ccc6c(c5)NC(=O)CS6)C(=O)O4)[C@H](C(=O)O)C3)c2n1 (relative stereo) [Example 74, (3R*,4S*)-1-(6-Methoxy-[1,5]naphthyridin-4-yl)-4-{[(R)-2-oxo-3-(3-oxo-3,4-dihydro-2H-benzo[1,4]thiazin-6-yl)-oxazolidin-5-ylmethyl]-amino}-pyrrolidine-3-carboxylic acid] | 0.5 (≈ 0.908 µM) |  |

More lines, now with the values ahead:

| MIC [µg/mL] | MIC S aureus A798 | SMILES |
| --- | --- | --- |
| ≤ 0.031 |  | COc1ccc2nccc(N3CCN(C[C@@H]4CN(c5ccc(F)c(F)c5)C(=O)O4)CC3)c2n1 [Example 29, (R)-3-(3,4-Difluoro-phenyl)-5-[4-(6-methoxy-[1,5]naphthyridin-4-yl)-piperazin-1-ylmethyl]-oxazolidin-2-one] |
| ≤ 0.031 |  | COc1ccc2nccc(N3CC(N(C)C[C@@H]4CN(c5ccc(OC(F)F)cc5)C(=O)O4)C3)c2n1 [Example 134, (R)-3-(4-Difluoromethoxy-phenyl)-5-({[1-(6-methoxy-[1,5]naphthyridin-4-yl)-azetidin-3-yl]-methyl-amino}-methyl)-oxazolidin-2-one] |
| 0.25 (≈ 0.497 µM) |  | COc1ccc2nccc(N3CCN(C[C@@H]4CN(c5cccc(OC(F)(F)F)c5)C(=O)O4)CC3)c2n1 [Example 10, (R)-5-[4-(6-Methoxy-[1,5]naphthyridin-4-yl)-piperazin-1-ylmethyl]-3-(3-trifluoromethoxy-phenyl)-oxazolidin-2-one] |
| ≤ 0.031 |  | COc1ccc2nccc(N3CC(NC[C@@H]4CN(c5ccc6c(c5)OCCO6)C(=O)O4)C3)c2n1 [Example 51, (R)-3-(2,3-Dihydro-benzo[1,4]dioxin-6-yl)-5-{[1-(6-methoxy-[1,5]naphthyridin-4-yl)-azetidin-3-ylamino]-methyl}-oxazolidin-2-one] |
| ≤ 0.031 |  | COc1ccc2nccc(N3CCN(C[C@@H]4CN(c5ccc(C)c(F)c5)C(=O)O4)CC3)c2n1 [Example 36, (R)-3-(3-Fluoro-4-methyl-phenyl)-5-[4-(6-methoxy-[1,5]naphthyridin-4-yl)-piperazin-1-ylmethyl]-oxazolidin-2-one] |
| ≤ 0.031 |  | COc1ccc2cccc(N3CC(NC[C@@H]4CN(c5ccc6c(c5)NC(=O)CS6)C(=O)O4)C3)c2n1 [Example 158, 6-((R)-5-{[1-(2-Methoxy-quinolin-8-yl)-azetidin-3-ylamino]-methyl}-2-oxo-oxazolidin-3-yl)-4H-benzo[1,4]thiazin-3-one] |
| 0.063 (≈ 0.135 µM) |  | COc1ccc2nccc(N3CC(CNCCC4CN(c5ccc(C)c(F)c5)C(=O)O4)C3)c2n1 (racemic) [Example 149, (RS)-3-(3-Fluoro-4-methyl-phenyl)-5-(2-{[1-(6-methoxy-[1,5]naphthyridin-4-yl)-azetidin-3-ylmethyl]-amino}-ethyl)-oxazolidin-2-one] |
| 0.063 (≈ 0.125 µM) |  | COc1ccc2ncc(F)c(N3CC[C@H](NC[C@@H]4CN(c5ccc(OC(F)F)cc5)C(=O)O4)C3)c2n1 [Example 171, (R)-3-(4-Difluoromethoxy-phenyl)-5-{[(S)-1-(3-fluoro-6-methoxy-[1,5]naphthyridin-4-yl)-pyrrolidin-3-ylamino]-methyl}-oxazolidin-2-one] |
| ≤ 0.031 |  | COc1ccc2nccc(N3CCC(NC[C@H]4CN(c5ccc6c(c5)NC(=O)CS6)C(=O)O4)CC3)c2n1 [Example 165, 6-((S)-5-{[1-(6-Methoxy-[1,5]naphthyridin-4-yl)-piperidin-4-ylamino]-methyl}-2-oxo-oxazolidin-3-yl)-4H-benzo[1,4]thiazin-3-one] |
